Experimental data published in EP3839043A1, “SCREENING METHODS FOR COMPOUNDS MODULATING POLYAMINE TRANSPORT” (Katholieke Universiteit Leuven, priority 2019, dated 2021).
Marks after values point to notes of the source that are not given here.

Columns and labels:
SH-SY5Y cells [1] = conditions: KO and KO/D508N cells; 10 µM SPM, 4 h
Protocol: FITC-dextran based lysosomal pH - SH-SY5Y cells were seeded in 12-well plates (1.0 X 10^5 cells per well) and allowed to adhere overnight. Cells were exposed to 50 µg/ml FITC-dextran for 72 h. Samples were then washed, placed in fresh media and treated with SPM (10 µM) alone or in combination with acidic nanoparticles (180 ng/ml, 1 h pre-incubation) for 4 h. Samples were then collected by centrifugation (450 x g, 5 min) and washed in PBS. Cells were finally resuspended in 500 µl of PBS containing 1% BSA and FITC dual emission assessed by flow cytometry (excitation 488 nm, emission 530 (BL1) and 600 (BL2)) using an Attune NXT flow cytometer (Invitrogen). The emission (BL1/BL2) of all samples were compared to a standard curve, whereby signals were obtained from control cells resuspended in monensin (100 µM) containing Britton Robinson buffer with increasing pH (3.0-8.0).

Purified ATP13A2 = target: T1, Purified ATP13A2 (Homo sapiens, UniProt Q9NQ11); conditions: 1 mM SPM
T1 sequence (Q9NQ11 1-1175 isoform Q9NQ11-3): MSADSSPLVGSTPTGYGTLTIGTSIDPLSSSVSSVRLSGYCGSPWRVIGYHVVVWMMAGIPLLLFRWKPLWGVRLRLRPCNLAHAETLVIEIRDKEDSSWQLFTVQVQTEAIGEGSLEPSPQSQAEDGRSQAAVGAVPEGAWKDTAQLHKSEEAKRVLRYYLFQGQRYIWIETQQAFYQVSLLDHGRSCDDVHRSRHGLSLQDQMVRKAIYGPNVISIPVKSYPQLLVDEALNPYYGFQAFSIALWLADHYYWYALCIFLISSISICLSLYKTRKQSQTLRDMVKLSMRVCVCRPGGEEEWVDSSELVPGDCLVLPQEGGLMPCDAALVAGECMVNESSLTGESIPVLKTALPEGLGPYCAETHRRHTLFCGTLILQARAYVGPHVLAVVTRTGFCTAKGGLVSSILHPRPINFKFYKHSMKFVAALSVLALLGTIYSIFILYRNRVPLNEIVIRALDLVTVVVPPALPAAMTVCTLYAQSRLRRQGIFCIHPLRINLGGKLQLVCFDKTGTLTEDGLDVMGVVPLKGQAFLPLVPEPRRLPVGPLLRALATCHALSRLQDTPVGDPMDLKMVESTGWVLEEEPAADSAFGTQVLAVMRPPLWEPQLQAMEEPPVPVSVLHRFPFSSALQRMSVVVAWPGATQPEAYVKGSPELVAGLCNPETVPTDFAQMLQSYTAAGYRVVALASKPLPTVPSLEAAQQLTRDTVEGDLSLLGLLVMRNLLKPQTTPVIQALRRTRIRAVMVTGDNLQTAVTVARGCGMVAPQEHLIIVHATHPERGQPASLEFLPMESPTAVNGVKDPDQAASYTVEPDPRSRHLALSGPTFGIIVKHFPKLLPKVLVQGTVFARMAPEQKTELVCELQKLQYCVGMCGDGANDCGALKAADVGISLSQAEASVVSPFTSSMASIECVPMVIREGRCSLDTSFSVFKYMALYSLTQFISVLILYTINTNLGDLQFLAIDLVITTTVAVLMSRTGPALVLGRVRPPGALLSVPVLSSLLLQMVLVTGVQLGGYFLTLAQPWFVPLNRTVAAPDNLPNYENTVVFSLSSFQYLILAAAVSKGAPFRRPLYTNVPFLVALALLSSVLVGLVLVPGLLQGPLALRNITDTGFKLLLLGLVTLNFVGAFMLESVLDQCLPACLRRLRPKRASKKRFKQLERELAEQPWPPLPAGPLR
Protocol: (§1) PLoS One 13, e0193228, (2018)].
(§2) In case of purified ATP13A2, 125 µM PA and 125 µM PI(3,5)P2 were included in the reaction mixture. To determine the sensitivity of the ATP13A2 phosphoenzyme to ATP or a combination of ATP and SPM, 30 s after adding ^32P-ATP, samples were incubated with non-radioactive ATP (5 mM in experiments using microsomes, 1 mM when purified ATP13A2 was used) and SPM (1 mM) before the reaction was stopped at indicated time points. The incorporation of ^32P was visualized following SDS-PAGE under acidic conditions and subsequently detected by autoradiography (microsomes) or liquid scintillation counting (purified ATP13A2) (Liquid Scintillation Analyzer TRI-CARB 2900TR).

ATP13A2 = ATP13A2 (Homo sapiens, UniProt Q9NQ11)
Protocol: as §1, §2

SH-SY5Y cells [2] = test: MUH cytotoxicity assay; assay type: cell-based, human; conditions: increasing concentrations, 24 h
Protocol: MUH cytotoxicity assay - SH-SY5Y cells were seeded in 96-well plates (1 X 10^4 cells per well) and allowed to adhere overnight. The cells were subsequently treated with increasing doses of the indicated compounds for 24-48 h. Following exposure, the cells were washed with PBS and stained with 300 µg/ml MUH (prepared in DMSO, dissolved in PBS) for 30 min at 37°C.

cathepsin D (CTSD) = conditions: toxic SPM levels (10 µM, 4 h)
Protocol: (§3) Cathepsin activity assays - SH-SY5Y cells were seeded in 10 cm^2 plates (2 X 10^6 cells per plate) and allowed to adhere overnight prior to treatment with 10 µM SPM for 4 h at 37°C. For samples requiring acidic nanoparticle addition, 180 ng/ml nanoparticles were added 1 h prior to SPM addition. Next, the samples were harvested using TRYPLE and a brief centrifugation (300 x g; 5 min). CTSB (ab65300) and CTSD (ab65302) activities were assessed using commercially available kits (Abcam) according to the manufacturer's instructions. MFI were acquired using a FlexStation 3.0 multi-well plate reader (Molecular Devices).

cathepsin B (CTSB) = conditions: toxic SPM levels (10 µM, 4 h)
Protocol: as §3

SH-SY5Y cells [3] = test system: SH-SY5Y cells
Protocol: PI exclusion assay - Cells were seeded in 12-well plates (1.0 X 10^5 cells per well) and the next day, the cells were treated with increasing doses of SPM, alone or in combination with the CTSB inhibitor CA-074 (25 µM, 1 h pre-incubation) or acidic nanoparticles (180 ng/ml, 1 h pre-incubation), and incubated for 24 h at 37°C. Thereafter, the cells were harvested following trypsinization and a brief centrifugation (300 x g; 5 min), washed with PBS and stained with 1 µg/ml PI (in PBS containing 1% BSA). An Attune Nxt (Thermo Fischer Scientific) flow cytometer was used to determine the proportion of PI-positive cells (10,000 events per treatment).

Microsomal ATP13A2 = target: T2, Microsomal ATP13A2 (Homo sapiens, UniProt Q9NQ11); test: ATPase assay (ADP-Glo Max), solubilized microsomes of SH-SY5Y cells overexpressing ATP13A2 WT; assay type: biochemical; conditions: for ATPase activity of ATP13A2 WT, screen for candidate substrates: 100 nM CaCl2, MnCl2, ZnCl2 or FeCl3, 100 µM SPD or SPM; for Vmax ± SEM: Microsomal ATP13A2; for ATPase activity of ATP13A2, dose-response: indicated doses, microsomes 5 µg
T2 construct: expressed in transfected cells; host or cells: SH-SY5Y human neuroblastoma cells, lentiviral transduction; microsomes solubilised with DDM
T2 sequence (Q9NQ11 1-1175 isoform Q9NQ11-3): T1 sequence (Q9NQ11 1-1175 isoform Q9NQ11-3)
Protocol: Membrane fractionation - Transduced SH-SY5Y cells were seeded in […] at a density of 6 x 10^6 cells per plate. 24 h later, the cells were harvested following trypsinization and brief centrifugation (300 x g, 5 min). Subcellular fractionation was performed by differential centrifugation. The microsomal protein concentration was measured using the bicinchoninic acid assay (Thermo Fischer Scientific, Pierce) according to the manufacturer's instructions.
ATPase assay - The ATPase activity of ATP13A2 was assessed using a commercially available luminescence assay (ADP-Glo Max assay, Promega) that monitors the production of ADP via luciferase activity. The reactions were performed for 30 min (37°C) in a final volume of 25 µl. […] The assay was started by the addition of 5 mM ATP and was terminated by adding 25 µl of ADP-Glo Reagent. The 96-well plate was then incubated for 40 min at room temperature, followed by the addition of 50 µl of ADP-Glo Max Detection Reagent. After 40 min, luminescence was detected using a FlexStation 3.0 system (Molecular Devices). Dose-response curves and n/Km/Vmax values were calculated using GraphPad Prism Software (GraphPad Software Inc.).

Row | Structure (SMILES) | lysosomal pH (SH-SY5Y cells [1]) | dephosphorylation of purified WT after chase with cold ATP (Purified ATP13A2) | ATP13A2 phospho-enzyme levels (ATP13A2; WT-OE microsomes 20 µg, 60 s with [γ-32P] ATP) | dephosphorylation rate following a chase with non-radioactive ATP (ATP13A2; WT-OE microsomes, 1 mM SPM) | viability of control cells (SH-SY5Y cells [2]) | cathepsin D (CTSD) activity (cathepsin D (CTSD)) | cathepsin B (CTSB) activity (cathepsin B (CTSB)) | cell death (SH-SY5Y cells [3]) | ATPase activity of ATP13A2 WT, screen for candidate substrates (Microsomal ATP13A2) | Vmax ± SEM (Microsomal ATP13A2) | ATPase activity of ATP13A2, dose-response (Microsomal ATP13A2) | Hill coefficient of SPM-induced ATPase activity (Microsomal ATP13A2; microsomal ATP13A2 WT)
1 | NCCCNCCCCNCCCN [Spermine, spermine] | further increased | clearly stimulates dephosphorylation | dose-dependent reduction | significantly higher dephosphorylation rate | reduced the viability | decreased | increased | increase in cell death | significantly stimulated ATPase activity | 140 ± 6 nmol ADP/mg/min | stimulate ATPase activity in a concentration-dependent manner | approaches one
2 | NCCCCNCCCN [Spermidine, spermidine] | – | – | – | – | reduced the viability | – | – | – | significantly stimulated ATPase activity | ∼ 106* nmol ADP/mg/min | stimulate ATPase activity in a concentration-dependent manner | –
